Earlier results as cited in US12318421B2 (priority 2020, dated 2025).

Target: α-glucosidase
Settings: values disclosed in references

SMILES: O=c1cc(-c2ccc(O)cc2)oc2cc(O)c([C@@H]3O[C@H](CO)[C@@H](O)[C@H](O)[C@H]3O)c(O)c12 [isovitexin]
- IC50 of α-glucosidase activity disclosed in references: 46.9 µg/mL
